{
  "source": "patent US9783547B2",
  "about": "“Water soluble 4-azapodophyllotoxin analogs” (CENTRE NATIONAL DE LA RECHERCHE SCIENTIFIQUE (CNRS), priority 2014, dated 2017)",
  "key": {"[1]": {"system": "human cancer cell lines", "assay": "Cytotoxicity on the whole panel of human cancer cell lines (MTS)", "format": "cell-based", "conditions": "all human cancer cell lines of Table 2; read-out: IC50 values, range over all cell lines"}, "[2]": {"system": "OVCAR8", "assay": "Cytotoxicity assay for human cancer cells (MTS)", "format": "cell-based", "conditions": "OVCAR-8, OVCAR8 ovarian adenocarcinoma, 72 h, read-out: IC 50 value", "procedure": "(§1) Human cells were grown in DMEM medium supplemented with 10% fetal calf serum (Invitrogen), in the presence of penicillin, streptomycin and amphotericin B (Fungizone) in 75 cm^2 flask under 5% CO2. Cells were plated in 96-well tissue culture microplates at a density of 650 cells/well in 200 μl medium and treated 24 h later with the compound dissolved in DMSO at concentrations ranging from 0.5-10 μM applied using an automated benchstation (Beckman Biomek 3000). Controls received the same volume of DMSO as the test wells (1% final concentration). After a 72 h exposure time, MTS reagent (Promega) was added and incubated for 3 h at 37° C. and the absorbance was read at 490 nm. Results are expressed as the inhibition of cell proliferation calculated as the ratio [(OD490 treated/OD490 control)×100]."}, "[3]": {"system": "SF268", "assay": "Cytotoxicity assay for human cancer cells (MTS)", "format": "cell-based", "conditions": "SF-268, SF268 brain glioma, 72 h, read-out: IC 50 value", "procedure": "as §1"}, "[4]": {"system": "U937", "assay": "Cytotoxicity assay for human cancer cells (MTS)", "format": "cell-based", "conditions": "U-937, U937 histiocytic lymphoma, 72 h, read-out: IC 50 value", "procedure": "as §1"}, "[5]": {"system": "MDA231", "assay": "Cytotoxicity assay for human cancer cells (MTS)", "format": "cell-based", "conditions": "MDA-MB-231, MDA231 breast ER− (hormone independent), 72 h, read-out: IC 50 value", "procedure": "as §1"}, "[6]": {"system": "HCT116", "assay": "Cytotoxicity assay for human cancer cells (MTS)", "format": "cell-based", "conditions": "HCT-116, HCT116 colorectal carcinoma, 72 h, read-out: IC 50 value", "procedure": "as §1"}, "[7]": {"system": "MCF7", "assay": "Cytotoxicity assay for human cancer cells (MTS)", "format": "cell-based", "conditions": "MCF7 breast ER+ (hormone dependent), 72 h, read-out: IC 50 value", "procedure": "as §1"}, "[8]": {"system": "HT29", "assay": "Cytotoxicity assay for human cancer cells (MTS)", "format": "cell-based", "conditions": "HT-29, HT29 colorectal adenocarcinoma, 72 h, read-out: IC 50 value", "procedure": "as §1"}, "[9]": {"system": "MDA435", "assay": "Cytotoxicity assay for human cancer cells (MTS)", "format": "cell-based", "conditions": "MDA435 breast ER− (highly metastatic to lungs), 72 h, read-out: IC 50 value", "procedure": "as §1"}, "[10]": {"system": "PC3", "assay": "Cytotoxicity assay for human cancer cells (MTS)", "format": "cell-based", "procedure": "as §1"}, "[11]": {"system": "EPC", "assay": "Cytotoxicity assay for human cancer cells (MTS)", "format": "cell-based", "procedure": "as §1"}, "[12]": {"system": "A2780cis", "assay": "Cytotoxicity assay for human cancer cells (MTS)", "format": "cell-based", "conditions": "A2780cis ovarian carcinoma-cisplatin resistant, 72 h, read-out: IC 50 value", "procedure": "as §1"}, "[13]": {"system": "MIA PaCa-2", "assay": "Cytotoxicity assay for human cancer cells (MTS)", "format": "cell-based", "conditions": "MIA PaCa-2 pancreatic carcinoma, 72 h, read-out: IC 50 value", "procedure": "as §1"}, "[14]": {"system": "HepG2", "assay": "Cytotoxicity assay for human cancer cells (MTS)", "format": "cell-based", "conditions": "HepG2 hepatocellular carcinoma, 72 h, read-out: IC 50 value", "procedure": "as §1"}, "[15]": {"system": "SK-OV3", "assay": "Cytotoxicity assay for human cancer cells (MTS)", "format": "cell-based", "conditions": "SK-OV-3, SK-OV3 ovarian adenocarcinoma, 72 h, read-out: IC 50 value", "procedure": "as §1"}, "[16]": {"system": "HCT15", "assay": "Cytotoxicity assay for human cancer cells (MTS)", "format": "cell-based", "conditions": "HCT-15, HCT15 colon adenocarcinoma, 72 h, read-out: IC 50 value", "procedure": "as §1"}, "[17]": {"system": "A2780", "assay": "Cytotoxicity assay for human cancer cells (MTS)", "format": "cell-based", "conditions": "A2780 ovarian carcinoma, 72 h, read-out: IC 50 value", "procedure": "as §1"}, "[18]": {"system": "A549", "assay": "Cytotoxicity assay for human cancer cells (MTS)", "format": "cell-based", "conditions": "A549 lung carcinoma, 72 h, read-out: IC 50 value", "procedure": "as §1"}, "[19]": {"system": "KB", "assay": "Cytotoxicity assay for human cancer cells (MTS)", "format": "cell-based", "conditions": "KB epidermoid carcinoma, 72 h, read-out: IC 50 value", "procedure": "as §1"}, "[20]": {"system": "K562", "assay": "Cytotoxicity assay for human cancer cells (MTS)", "format": "cell-based", "conditions": "K562 chronic myelogenous leukemia, 72 h, read-out: IC 50 value", "procedure": "as §1"}, "[21]": {"system": "MCF7R", "assay": "Cytotoxicity assay for human cancer cells (MTS)", "format": "cell-based", "conditions": "MCF7R breast ER+ (multidrug resistant), 72 h, read-out: IC 50 value", "procedure": "as §1"}, "[22]": {"system": "U87", "assay": "Cytotoxicity assay for human cancer cells (MTS)", "format": "cell-based", "conditions": "U-87 MG, U87 brain glioblastoma, astrocytoma, 72 h, read-out: IC 50 value", "procedure": "as §1"}, "[23]": {"system": "HL60R", "assay": "Cytotoxicity assay for human cancer cells (MTS)", "format": "cell-based", "conditions": "HL60R acute promyelocytic leukemia-multidrug resistant, 72 h, read-out: IC 50 value", "procedure": "as §1"}, "[24]": {"system": "LnaCap", "assay": "Cytotoxicity assay for human cancer cells (MTS)", "format": "cell-based", "procedure": "as §1"}, "[25]": {"system": "Eahy 926 endothelial cells (preformed cords on Matrigel)", "assay": "Endothelial cell cords disruption assay", "format": "cell-based, human", "conditions": "2 hour exposure", "procedure": "Eahy 926 endothelial cells were seeded onto a Matrigel layer in 6 well plates and allowed to form microvascular structures for 48 h (cords). […] In this experiment the control solvent used was 1% DMSO final concentration, because this solvent was required to solubilize combretastatin A4 used as a positive internal control. Digital photographs of the same plate region were taken before drug application and two hours after.\nAnother typical effect of antivascular agents is the disruption of preformed cords of endothelial cells grown on a Matrigel layer."}, "[26]": {"system": "colon 26 carcinoma", "assay": "Antitumor activity in colon 26 carcinoma bearing mice", "conditions": "for Tumor Log10 cell kill: [(T − C)/3.32] × Td, Td 2 days"}, "[27]": {"conditions": "31 mg/kg i.p. days 4, 5, 11, 12, 14, 15"}, "[28]": {"conditions": "50 mg/kg i.p. days 4, 5, 11, 12, 14, 15"}},
  "note": "Read-outs that look alike come from different tables or passages of the source.",
  "data": [
    {"smiles": "COc1cc(Nc2c3c(nc4cc5c(cc24)OCO5)CCCC3=O)cc(OC)c1OC.Cl", "note": "[SGR307.HCl, 6,7-(Methylenedioxy)-9-(3,4,5-trimethoxyphenylamino)-3,4-dihydroacridin-1(2H)-one, hydrochloride]", "values": [
      {"measurement": "IC50", "setting": "[1]", "value": "30 to 380", "unit": "nM"},
      {"measurement": "IC50", "setting": "[2]", "value": 138, "unit": "nM"},
      {"measurement": "IC50", "setting": "[3]", "value": 150, "unit": "nM"},
      {"measurement": "IC50", "setting": "[4]", "value": 121, "unit": "nM"},
      {"measurement": "IC50", "setting": "[5]", "value": 79, "unit": "nM"},
      {"measurement": "IC50", "setting": "[6]", "value": 68, "unit": "nM"},
      {"measurement": "IC50", "setting": "[7]", "value": 76, "unit": "nM"},
      {"measurement": "IC50", "setting": "[8]", "value": 129, "unit": "nM"},
      {"measurement": "IC50", "setting": "[9]", "value": 124, "unit": "nM"},
      {"measurement": "IC50", "setting": "[10]; PC-3, PC3 androgen-independent prostate adenocarcinoma, value of running text, read-out: IC50", "value": "120 to 130", "unit": "nM"},
      {"measurement": "IC50", "setting": "[10]; PC-3, PC3 prostate adenocarcinoma (androgen independent), 72 h, MTS, read-out: IC 50 value", "value": 98, "unit": "nM"},
      {"measurement": "IC50", "setting": "[11]; Homo sapiens, 72 h, EPC epithelioma (quiescent cell line), 72 h, MTS, read-out: IC 50 value", "value": 237, "unit": "nM"},
      {"measurement": "IC50", "setting": "[11]; Homo sapiens, quiescent cell line EPC, values of running text, read-out: IC50 values", "value": 310, "unit": "nM"},
      {"measurement": "IC50", "setting": "[11]; quiescent cell line EPC, values of running text, hydrochloride, read-out: IC50 values", "value": 360, "unit": "nM"},
      {"measurement": "IC50", "setting": "[12]", "value": 109, "unit": "nM"},
      {"measurement": "IC50", "setting": "[13]", "value": 109, "unit": "nM"},
      {"measurement": "IC50", "setting": "[14]", "value": 139, "unit": "nM"},
      {"measurement": "IC50", "setting": "[15]", "value": 112, "unit": "nM"},
      {"measurement": "IC50", "setting": "[16]", "value": 91, "unit": "nM"},
      {"measurement": "IC50", "setting": "[17]", "value": 99, "unit": "nM"},
      {"measurement": "IC50", "setting": "[18]", "value": 158, "unit": "nM"},
      {"measurement": "IC50", "setting": "[19]", "value": 111, "unit": "nM"},
      {"measurement": "IC50", "setting": "[20]", "value": 83, "unit": "nM"},
      {"measurement": "IC50", "setting": "[21]", "value": 121, "unit": "nM"},
      {"measurement": "IC50", "setting": "[22]", "value": 126, "unit": "nM"},
      {"measurement": "IC50", "setting": "[23]", "value": 164, "unit": "nM"},
      {"measurement": "IC50", "setting": "[24]; LnaCap androgen-dependent prostate adenocarcinoma, value of running text, read-out: IC50", "value": "330 to 380", "unit": "nM"},
      {"measurement": "IC50", "setting": "[24]; LnaCap prostate adenocarcinoma (androgen dependent), 72 h, MTS, read-out: IC 50 value", "value": 103, "unit": "nM"},
      {"measurement": "Lowest concentration at which destruction of endothelial cords is observed", "setting": "[25]", "value": 0.5, "unit": "µM"},
      {"measurement": "T − C (day), tumor growth delay", "setting": "[26]; [27]", "value": 7.7, "unit": "days"},
      {"measurement": "Time for median tumor to reach 750 mg", "setting": "[26]; [27]", "value": 21.2, "unit": "days"},
      {"measurement": "% T/C day 15", "setting": "[26]; [27]", "value": 15.4, "unit": "%"},
      {"measurement": "Mean tumor vol (mm^3) day 15", "setting": "[26]; [27]", "value": 168, "unit": "mm^3"},
      {"measurement": "Mean body wt change [g/mouse (day of nadir)]", "setting": "[26]; 31 mg/kg i.p. days 4, 5, 11, 12, 14, 15, nadir d6", "value": "−0.7", "unit": "g/mouse"},
      {"measurement": "Tumor Log10 cell kill", "setting": "[26]; 31 mg/kg i.p.", "value": 4.6},
      {"measurement": "T − C (day), tumor growth delay", "setting": "[26]; [28]", "value": 13.7, "unit": "days"},
      {"measurement": "Time for median tumor to reach 750 mg", "setting": "[26]; [28]", "value": 27.2, "unit": "days"},
      {"measurement": "% T/C day 15", "setting": "[26]; [28]", "value": 2.8, "unit": "%"},
      {"measurement": "Mean tumor vol (mm^3) day 15", "setting": "[26]; [28]", "value": 31, "unit": "mm^3"},
      {"measurement": "Mean body wt change [g/mouse (day of nadir)]", "setting": "[26]; 50 mg/kg i.p. days 4, 5, 11, 12, 14, 15, nadir d7", "value": "−2.6", "unit": "g/mouse"},
      {"measurement": "Tumor Log10 cell kill", "setting": "[26]; 50 mg/kg i.p.", "value": 8.3},
      {"measurement": "Body weight loss", "setting": "[26]; 80 mg/kg i.p. days 4, 5, 11, 12, 14, 15", "value": "> 20", "unit": "%"},
      {"measurement": "Mean body wt change [g/mouse (day of nadir)]", "setting": "[26]; 80.6 mg/kg i.p. days 4, 5, 11, 12, 14, 15, nadir d14", "value": "−5.4", "unit": "g/mouse"}
    ]}
  ]
}
